Molecular target: T1, Carboxypeptidase A1 (Homo sapiens, UniProt P15085)
T1 sequence (P15085 whole entry): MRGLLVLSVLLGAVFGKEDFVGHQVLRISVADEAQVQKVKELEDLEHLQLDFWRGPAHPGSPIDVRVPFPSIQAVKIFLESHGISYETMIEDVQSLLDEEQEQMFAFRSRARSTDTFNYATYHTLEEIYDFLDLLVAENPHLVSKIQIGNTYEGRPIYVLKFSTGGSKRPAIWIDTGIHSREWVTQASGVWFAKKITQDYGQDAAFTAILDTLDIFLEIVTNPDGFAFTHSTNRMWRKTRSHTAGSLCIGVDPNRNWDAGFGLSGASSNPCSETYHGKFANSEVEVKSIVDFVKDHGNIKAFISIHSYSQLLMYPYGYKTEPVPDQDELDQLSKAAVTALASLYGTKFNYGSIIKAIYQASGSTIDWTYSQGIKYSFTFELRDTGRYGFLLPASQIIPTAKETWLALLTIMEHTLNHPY
Assay: Compound was tested for its inhibitory activity against carboxypeptidase A (CPA)

Structure (SMILES) | Ki [µM]
O=C(O)C(Cc1ccccc1)CN(O)C(=O)c1ccccc1 (centres undefined) | 6.5
O=C(O)C(Cc1ccccc1)CN(O)C(=O)CCCc1ccccc1 (centres undefined) | 1.16
O=C(O)C(Cc1ccccc1)CN(O)C(=O)Cc1ccccc1 (centres undefined) | 0.32
O=CN(O)CC(Cc1ccccc1)C(=O)O (centres undefined) | 0.98
O=CN(O)C[C@@H](Cc1ccccc1)C(=O)O | 0.56
CC(=O)N(O)CC(Cc1ccccc1)C(=O)O (centres undefined) | 5.9
O=C(O)C(Cc1ccccc1)CN(O)C(=O)CCc1ccccc1 (centres undefined) | 1.2
O=CN(O)C[C@H](Cc1ccccc1)C(=O)O | 4.95
CCC(=O)N(O)CC(Cc1ccccc1)C(=O)O (centres undefined) | 5.82

Source: ChEMBL document CHEMBL1132056, “First hydroxamate inhibitors for carboxypeptidase A. N-acyl-N-hydroxy-beta-phenylalanines” (Bioorg Med Chem Lett, 1999)
